Results published in patent US8137700B2, “Main chain acid-degradable polymers for the delivery of bioactive materials” (U.S. Department of Energy, priority 2006, dated 2012).

System: LacZ B3Z hybridoma
Experiment: LacZ MHC Class I antigen presentation assay
Format: cell-based
Procedure: In one embodiment, particles prepared from these acid degradable epolymer backbones are designed to release their bioactive material payload into the cytoplasm of cells upon lysosomal destabilization. Higher loading capacity of the particles may also lead to greater antigen presentation of the encapsulated bioactive material. In the antigen presentation assay described by Sanderson, S.; Shastri, N. in Inter. Immun. 1994, 6, 369-376, the β-galactosidase activity of B3Z T cells is measured. Antigen presenting cells display the peptide having the sequence, […] (SEQ ID NO: 8), upon phagocytosis of ovalbumin. These cells are engineered to transcribe β-galactosidase when in the presence of antigen presenting cells displaying the […] peptide (SEQ ID NO: 8). β-galactosidase then liberates chlorophenol red from the chlorophenol red βgalactoside that is present in solution. Absorbance of chlorophenol red is measured by UV absorbance at 595 nm. Therefore this assay can be used as a measurement of the amount of bioactive material delivered into the cytoplasm of cells by the microgel particles of the invention by measuring the amount of liberated chlorophenol red by UV absorbance at 595 nm.
The LacZ MHC Class I antigen presentation assay, as described by the antigen Sanderson, S.; Shastri, N. in Inter. Immun. 1994, 6, 369-376, is performed with degradable polymer particles made according to Example 7 with the degradable polymers in Example 1 and 3 to test their ability to deliver proteins into APCs for Class I antigen presentation. This experiment uses the LacZ B3Z hybridoma, which is a CTL that recognizes the peptide sequence, […] (SEQ ID NO: 8), from ovalbumin, complexed with the MHC Class I molecule H-2 K^b. This hybridoma produces P-galactosidase after encountering APCs that present […] as a Class I antigen, thus allowing Class I antigen presentation to be quantified by measuring β-galactosidase activity.
A maximum absorbance of 0.25 is observed with the […] peptide (SEQ ID NO: 8), which results in 100% T-cell activation. At about 0.4 mg of particle/mL, degradable particles made as in Examples 1, should show an absorbance close to that of 0.25 at which 100% T-cell activation occurs.

| Substance | T-cell activation (at maximum absorbance) | maximum absorbance (chlorophenol red, 595 nm) | U.V. absorbance resulting from activation (1 mg/ml of free ovalbumin) | activation of CTLs by APCs (APCs incubated with the substance) |
| --- | --- | --- | --- | --- |
| SIINFEKL | 100% | 0.25 | – | – |
| free ovalbumin: free ovalbumin protein, comparator | – | – | 0.037 | not able to activate CTLs |
